What follows are molecules tested against T1, Recombinant (1-346) HPK1 (h) (Homo sapiens, UniProt Q92918) (assay: HPK1 Human STE Kinase Enzymatic Radiometric Assay). Details: read-out: HPK1 IC50 nM Range*.
T1 construct: Recombinant (1-346) HPK1 (h) is incubated with 8 mM MOPS pH 7.0
T1 sequence (Q92918 1-346): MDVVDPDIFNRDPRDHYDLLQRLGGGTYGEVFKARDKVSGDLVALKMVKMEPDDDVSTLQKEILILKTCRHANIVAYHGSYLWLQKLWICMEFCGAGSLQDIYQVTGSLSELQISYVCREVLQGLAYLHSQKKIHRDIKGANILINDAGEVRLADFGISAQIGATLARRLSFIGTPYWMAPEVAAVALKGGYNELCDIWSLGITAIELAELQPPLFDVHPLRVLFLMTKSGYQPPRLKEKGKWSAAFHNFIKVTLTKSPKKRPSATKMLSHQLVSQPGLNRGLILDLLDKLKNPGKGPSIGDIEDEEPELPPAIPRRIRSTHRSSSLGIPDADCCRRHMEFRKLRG
Format: biochemical
Method: A stock solution of 10 mM of test compound is prepared in DMSO. The compound plate was prepared by 3-fold and 9-point serial dilutions. […] The reaction is initiated by The addition of the Mg/ATP mix. After incubation for 40 minutes at RT, the reaction is stopped by the addition of phosphoric acid to a concentration of 0.5%.

Compared with `COCCN(C)Cc1cc(-c2cc(-c3ccc4c(c3)CCNC4=O)c(N)nc2F)ccc1N1CCOCC1` [I-553, 6-(2-amino-6-fluoro-5-(3-(((2-methoxyethyl)(methyl)amino)methyl)-4-morpholinophenyl)pyridin-3-yl)-3,4-dihydroisoquinolin-1(2H)-one], `COCCN(C)Cc1cc(-c2cc(-c3cc4c(cc3F)C(=O)NCC4)c(N)nc2F)ccc1N1CCOCC1` [I-554, 6-(2-amino-6-fluoro-5-(3-(((2-methoxyethyl)(methyl)amino)methyl)-4-morpholinophenyl)pyridin-3-yl)-7-fluoro-3,4-dihydroisoquinolin-1(2H)-one] is higher in IC50: 0.1 to 10 nM for the first, 11 to 100 nM for the second.

`CN(C)Cc1cc(-c2cc(-c3ccc4c(c3)CCNC4=O)c(N)nc2F)ccc1OCC(F)F` [I-555, 6-(2-amino-5-(4-(2,2-difluoroethoxy)-3-((dimethylamino)methyl)phenyl)-6-fluoropyridin-3-yl)-3,4-dihydroisoquinolin-1(2H)-one] and `CN(C)Cc1cc(-c2cc(-c3cc4c(cc3F)C(=O)NCC4)c(N)nc2F)ccc1OCC(F)F` [I-556, 6-(2-amino-5-(4-(2,2-difluoroethoxy)-3-((dimethylamino)methyl)phenyl)-6-fluoropyridin-3-yl)-7-fluoro-3,4-dihydroisoquinolin-1(2H)-one] fall in the same range of IC50: 11 to 100 nM for the first, 11 to 100 nM for the second.

`Nc1nc(F)c(-c2ccc(C3CCOCC3)c(CN3CCCC3)c2)cc1-c1ccc2c(c1)CCNC2=O` [I-557, 6-(2-amino-6-fluoro-5-(3-(pyrrolidin-1-ylmethyl)-4-(tetrahydro-2H-pyran-4-yl)phenyl)pyridin-3-yl)-3,4-dihydroisoquinolin-1(2H)-one] and `Nc1nc(F)c(-c2ccc(C3CCOCC3)c(CN3CCCC3)c2)cc1-c1cc2c(cc1F)C(=O)NCC2` [I-558, 6-(2-amino-6-fluoro-5-(3-(pyrrolidin-1-ylmethyl)-4-(tetrahydro-2H-pyran-4-yl)phenyl)pyridin-3-yl)-7-fluoro-3,4-dihydroisoquinolin-1(2H)-one] fall in the same range of IC50: 11 to 100 nM for the first, 11 to 100 nM for the second.

`Nc1nc(F)c(-c2ccc(N3CCOCC3)c(CN3CCCCC3)c2)cc1-c1ccc2c(c1)CCNC2=O` [I-559, 6-(2-amino-6-fluoro-5-(4-morpholino-3-(piperidin-1-ylmethyl)phenyl)pyridin-3-yl)-3,4-dihydroisoquinolin-1(2H)-one] and `Nc1nc(F)c(-c2ccc(N3CCOCC3)c(CN3CCCCC3)c2)cc1-c1cc2c(cc1F)C(=O)NCC2` [I-560, 6-(2-amino-6-fluoro-5-(4-morpholino-3-(piperidin-1-ylmethyl)phenyl)pyridin-3-yl)-7-fluoro-3,4-dihydroisoquinolin-1(2H)-one] fall in the same range of IC50: 11 to 100 nM for the first, 11 to 100 nM for the second.

`CN(C)Cc1cc(-c2cc(-c3cc4c(F)c[nH]c(=O)c4cc3F)c(N)nc2F)ccc1N1CCOCC1` [I-561, 6-(2-amino-5-(3-((dimethylamino)methyl)-4-morpholinophenyl)-6-fluoropyridin-3-yl)-4,7-difluoroisoquinolin-1(2H)-one] and `CN(C)Cc1cc(-c2cc(-c3cc4c(F)c[nH]c(=O)c4cc3F)c(N)nc2F)ccc1C1CCOCC1` [I-562, 6-(2-amino-5-(3-((dimethylamino)methyl)-4-(tetrahydro-2H-pyran-4-yl)phenyl)-6-fluoropyridin-3-yl)-4,7-difluoroisoquinolin-1(2H)-one] fall in the same range of IC50: 0.1 to 10 nM for the first, 0.1 to 10 nM for the second.

First: CO[C@@H]1CCN(Cc2cc(-c3cc(-c4ccc5c(c4)CCNC5=O)c(N)nc3F)ccc2N2CCOCC2)C1 [I-563, (R)-6-(2-amino-6-fluoro-5-(3-((3-methoxypyrrolidin-1-yl)methyl)-4-morpholinophenyl)pyridin-3-yl)-3,4-dihydroisoquinolin-1(2H)-one]
Second: CO[C@H]1CCN(Cc2cc(-c3cc(-c4ccc5c(c4)CCNC5=O)c(N)nc3F)ccc2N2CCOCC2)C1 [I-565, (S)-6-(2-amino-6-fluoro-5-(3-((3-methoxypyrrolidin-1-yl)methyl)-4-morpholinophenyl)pyridin-3-yl)-3,4-dihydroisoquinolin-1(2H)-one]
The IC50 of the first is higher: 11 to 100 nM for the first, 0.1 to 10 nM for the second.

First: CO[C@@H]1CCN(Cc2cc(-c3cc(-c4cc5c(cc4F)C(=O)NCC5)c(N)nc3F)ccc2N2CCOCC2)C1 [I-564, (R)-6-(2-amino-6-fluoro-5-(3-((3-methoxypyrrolidin-1-yl)methyl)-4-morpholinophenyl)pyridin-3-yl)-7-fluoro-3,4-dihydroisoquinolin-1(2H)-one]
Second: CO[C@H]1CCN(Cc2cc(-c3cc(-c4cc5c(cc4F)C(=O)NCC5)c(N)nc3F)ccc2N2CCOCC2)C1 [I-566, (S)-6-(2-amino-6-fluoro-5-(3-((3-methoxypyrrolidin-1-yl)methyl)-4-morpholinophenyl)pyridin-3-yl)-7-fluoro-3,4-dihydroisoquinolin-1(2H)-one]
The IC50 of the first is higher: 11 to 100 nM for the first, 0.1 to 10 nM for the second. The second is the more potent here.

`Cc1cc2cc(-c3cc(-c4ccc(N5CCN(CCCC(F)F)CC5)cc4)c(F)nc3N)cc(F)c2c(=O)[nH]1` [I-567, 6-(2-amino-5-(4-(4-(4,4-difluorobutyl)piperazin-1-yl)phenyl)-6-fluoropyridin-3-yl)-8-fluoro-3-methylisoquinolin-1(2H)-one] and `Cc1c[nH]c(=O)c2c(F)cc(-c3cc(-c4ccc(N5CCN(C(C)C)CC5)cc4)c(F)nc3N)cc12` [I-571, 6-(2-amino-6-fluoro-5-(4-(4-isopropylpiperazin-1-yl)phenyl)pyridin-3-yl)-8-fluoro-4-methylisoquinolin-1(2H)-one] fall in the same range of IC50: 0.1 to 10 nM for the first, 0.1 to 10 nM for the second.

First: CC(=O)N1CCC(Oc2ccc(-c3cc(-c4ccc5c(c4)CCNC5=O)c(N)nc3F)cc2CN(C)C)CC1 [I-568, 6-(5-(4-((1-acetylpiperidin-4-yl)oxy)-3-((dimethylamino)methyl)phenyl)-2-amino-6-fluoropyridin-3-yl)-3,4-dihydroisoquinolin-1(2H)-one]
Second: CC(=O)N1CCC(Oc2ccc(-c3cc(-c4cc5c(cc4F)C(=O)NCC5)c(N)nc3F)cc2CN(C)C)CC1 [I-569, 6-(5-(4-((1-acetylpiperidin-4-yl)oxy)-3-((dimethylamino)methyl)phenyl)-2-amino-6-fluoropyridin-3-yl)-7-fluoro-3,4-dihydroisoquinolin-1(2H)-one]
The IC50 of the first is lower: 0.1 to 10 nM for the first, 11 to 100 nM for the second. The first is the more potent here.

`CC(C)N1CCN(c2ccc(-c3cc(-c4cc5c(Cl)c[nH]c(=O)c5cn4)c(N)nc3F)cc2)CC1` [I-570, 6-(2-amino-6-fluoro-5-(4-(4-isopropylpiperazin-1-yl)phenyl)pyridin-3-yl)-4-chloro-2,7-naphthyridin-1(2H)-one] and `Cc1[nH]c(=O)c2cc(F)c(-c3cc(-c4ccc(N5CCN(C(C)C)CC5)cc4)c(F)nc3N)cc2c1F` [I-572, 6-(2-amino-6-fluoro-5-(4-(4-isopropylpiperazin-1-yl)phenyl)pyridin-3-yl)-4,7-difluoro-3-methylisoquinolin-1(2H)-one] fall in the same range of IC50: 0.1 to 10 nM for the first, 0.1 to 10 nM for the second.

`COCCN(C)Cc1cc(-c2cc(-c3ccc4c(c3)CCNC4=O)c(N)nc2F)ccc1C1CCOCC1` [I-573, 6-(2-amino-6-fluoro-5-(3-(((2-methoxyethyl)(methyl)amino)methyl)-4-(tetrahydro-2H-pyran-4-yl)phenyl)pyridin-3-yl)-3,4-dihydroisoquinolin-1(2H)-one] and `COCCN(C)Cc1cc(-c2cc(-c3cc4c(cc3F)C(=O)NCC4)c(N)nc2F)ccc1C1CCOCC1` [I-574, 6-(2-amino-6-fluoro-5-(3-(((2-methoxyethyl)(methyl)amino)methyl)-4-(tetrahydro-2H-pyran-4-yl)phenyl)pyridin-3-yl)-7-fluoro-3,4-dihydroisoquinolin-1(2H)-one] fall in the same range of IC50: 0.1 to 10 nM for the first, 0.1 to 10 nM for the second.

— patent US20240343704A1, “HALO-SUBSTITUTED AMINO PYRIDINE COMPOUNDS AS INHIBITORS OF THE HAEMATOPOIETIC PROGENITOR KINASE 1 (HPK1)” (priority 2021, published 2024)
